# Measured values published in article PMC9537572, “Elucidation of the binding mechanism of astragaloside IV derivative with human serum albumin and its cardiotoxicity in zebrafish embryos” (Frontiers in Pharmacology, 2022).
# Several values for one entry are separate records, joined by “and”; a condition that tells them apart may be missing. Equal values may be shown once. Entries after “also recorded” stand apart in the source; their conditions may differ.
# Key:
# mice = details: even at high treatment doses, ref Qing et al., 2019, Sun et al.; cited from earlier work
# zebrafish embryos [1] = assay: Astemizole-induced toxicity in zebrafish heart development; assay type: in vivo; details: for Mortality: cotreated with 4 µM astemizole 48 h from 2 hpf
# Protocol: A total of 270 wild-type AB zebrafish at 2 h post-fertilization (2 hpf) were randomly selected, and 30 zebrafish were plated in each well of a six-well plates. The concentrations of LS-102 were 27.8, 83.3 and 250 µg/ml, while that of AGS IV was 250 µg/mL. A normal control group (fish culture water) and a 4 µM astemizole model control group were also established. After LS-102 and AGS IV were cotreated with astemizole for 48 h, zebrafish heart development was observed and photographed under a microscope to evaluate the ameliorative effect of LS-102 and AGS IV on astemizole-induced toxicity in zebrafish heart development.
# HSA [2] = target: T1, HSA (Homo sapiens, UniProt P02768); assay: Plasma protein binding rate by equilibrium dialysis and UHPLC-MS/MS; assay type: in vitro ADME
# Protocol: The binding rate of AGS IV/LS-102 and HSA was determined using a slightly modified equilibrium dialysis method ([Metsu et al., 2020]). […] The stock solutions of HSA (0.5 ml) and drug group (0.5 ml) were placed in a dialysis membrane bag that was ligated at both ends and then immersed in a test tube filled with 50 ml of PBS solution for 72 h at 4 °C. After equilibrium, a 0.5-ml solution of outer dialysate and internal dialysate was collected into a 2-ml EP tube, and 10 µL IS (digoxin, 0.1 mg/ml) solution was added to each tube. Both samples were added to 1.5 ml of acetonitrile and vortexed for 3 min, and then the samples were separated via centrifugation at 18,000 × g for 20 min. The supernatants were transferred to another EP tube and dried under a nitrogen stream. The residue was redissolved in 1 ml methanol, sonicated for 2 min, vortexed for 3 min, and centrifuged at 18,000 × g for 10 min. The supernatant was filtered with a 0.22 µm microporous syringe filter in a 2 ml sample vial, and 1 µL was injected into the UHPLC-MS/MS system for analysis. The plasma protein binding rate was calculated according to the following formula ([Talbert et al., 2002]): Plasma binding rate=Internal drug concentration−External drug concentration/Initial drug concentration ×100%
# HSA [3] = target: T1, HSA; assay: Site marker competitive experiments (warfarin, ibuprofen) by equilibrium dialysis; assay type: in vitro ADME; details: drug 0.476 mg/ml, n = 3, read-out: Plasma protein binding (converted)
# Protocol: The site marker competitive experiments were performed using two classical site probes, warfarin and ibuprofen, which were selected as the markers of subdomain IIA (site I) and subdomain IIIA (site II) separately of HAS ([Ghuman et al., 2005]). The procedure was consistent with the method described in section 2.5, except that the concentrations of AGS IV and LS-102 were both fixed at 0.476 mg/ml, while the external dialysis solution was changed to contain the probe with a final concentration of 0, 0.06, 0.3, 1.2 mg/ml PBS solution. Briefly, the AGS IV/LS-102 HSA mixture (0.5 ml drug and 0.5 ml HSA) was separately incubated with three different concentrations of probe to evaluate the effects of warfarin or ibuprofen on drug-protein binding influence. Three replicates of each concentration were prepared. After equilibrium dialysis, the internal and external dialysates were analyzed by UHPLC-MS/MS.
# zebrafish = assay: Arachidonic acid-induced thrombosis in zebrafish; assay type: in vivo; details: for Staining intensity of cardiac red blood cells (pixels) (mean ± se): 3 h pretreatment, arachidonic acid 1.5 h, n = 10; for Antithrombotic effect (%): vs. model group, arachidonic acid-induced thrombosis
# Protocol: A total of 270 melanin allele mutant translucent albino strain zebrafish at 3 dpf were randomly selected, with 30 zebrafish per well in six-well plates. The concentrations of LS-102 were 6.25, 12.5, 25, 50, and 100 µg/ml, while that of AGS IV was 100 µg/ml, and the positive control drug aspirin was 25 µg/ml. After treatment with LS-102 and AGS IV for 3 h, arachidonic acid aqueous solution was administered for 1.5 h to induce a thrombosis model in zebrafish in all experimental groups except the normal group. After staining with o-anisidine, zebrafish were randomly selected from each experimental group and observed under a dissecting microscope and photographed. Data were collected to qualitatively evaluate thrombosis in zebrafish, and the intensity of cardiac erythrocyte staining (length of venous thrombus vs. number of cardiac erythrocytes) in zebrafish was analyzed and counted to establish, the preventive effect of LS-102 and AGS IV with aspirin on thrombosis in zebrafish. The formula was calculated as follows:
# Thromboprophylactic effect (%) = S (drug administration group)−S (model group)/S (nomal control group)−S (model group)×100%
# zebrafish embryos [4] = assay: Maximum tolerated concentration of LS-102 in zebrafish; assay type: in vivo; details: for Mortality: 3 dpf zebrafish, n=30; for Deaths: of 30 zebrafish
# Protocol: Zebrafish embryos at 3 dpf were randomly selected and treated with LS-102 at concentrations of 1, 10, 100, 250 and 500 μg/ml in water, while the control group was left untreated. The mortality of zebrafish was recorded for each experimental group after 24 h of treatment.
# [5] = 83.3 µg/mL, 4 µM astemizole, 48 h, n=30
# T1 sequence (P02768 25-609): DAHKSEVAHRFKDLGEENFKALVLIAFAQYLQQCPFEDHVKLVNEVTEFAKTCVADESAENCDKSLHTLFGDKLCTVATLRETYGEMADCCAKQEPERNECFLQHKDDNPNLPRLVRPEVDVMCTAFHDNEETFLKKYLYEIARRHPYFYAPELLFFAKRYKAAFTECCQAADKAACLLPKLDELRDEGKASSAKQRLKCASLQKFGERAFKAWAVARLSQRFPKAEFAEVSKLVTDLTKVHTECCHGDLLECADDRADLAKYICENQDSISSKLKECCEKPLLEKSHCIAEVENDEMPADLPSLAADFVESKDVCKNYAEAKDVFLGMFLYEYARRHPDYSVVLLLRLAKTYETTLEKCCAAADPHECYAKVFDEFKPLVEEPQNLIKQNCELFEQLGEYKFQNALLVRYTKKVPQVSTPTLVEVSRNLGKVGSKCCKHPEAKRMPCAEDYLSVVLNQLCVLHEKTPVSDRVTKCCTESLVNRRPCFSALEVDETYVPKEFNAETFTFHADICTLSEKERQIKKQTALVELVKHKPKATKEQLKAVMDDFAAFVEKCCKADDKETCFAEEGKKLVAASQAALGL
smiles,measurement,setting,value
"CC(C)(O)C1CCC(C)(C2C(O)CC3(C)C4CC(OC5OC(C(=O)O)C(O)C(O)C5O)C5C(C)(C)C(OC6OCC(O)C(O)C6O)CCC56CC46CCC23C)O1 (stereo not shown) [LS-102, astragalosidic acid]",Abnormalities or death in mice (in words),mice,no abnormalities or death
same,Mortality,"zebrafish embryos [1]; 27.8 µg/mL, n=30",0%
same,Phenotype: absence of blood flow (share of zebrafish),zebrafish embryos [1]; [5],26.7%
same,"Phenotype: pericardial oedema, venous sinus stasis (share of zebrafish)",zebrafish embryos [1]; [5],83.3%
same,Phenotype: slowed blood flow (share of zebrafish),zebrafish embryos [1]; [5],56.7%
same,Mortality,"zebrafish embryos [1]; 83.3 µg/mL, n=30",0%
same,Phenotype (in words),"zebrafish embryos [1]; 250 µg/mL, 4 µM astemizole, 48 h, n=30",no significant toxicity; also recorded: No abnormalities seen
same,Mortality,"zebrafish embryos [1]; 250 µg/mL, n=30",30%
same,Effect on the developmental toxicity of zebrafish hearts induced by astemizole (in words),"zebrafish embryos [1]; 83.3 and 250 µg/ml, 4 µM astemizole, 48 h",ameliorating effect
same,"Plasma protein binding rate, range over the concentrations",HSA [2]; across the three concentrations (0.238-0.714 mg/ml),68.24%–69.35
same,fraction unbound at 72 h,"HSA [2]; human, plasma, across the three concentrations (0.238-0.714 mg/ml), read-out: Plasma protein binding rate, range over the concentrations",0.306 to 0.331
same,"fraction unbound at 72 h, 0.238 mg/ml","HSA [2]; human, drug 0.238 mg/ml, equilibrium dialysis 72 h at 4 °C, n = 3, read-out: Protein binding rate (%, Mean±SD) (converted)",0.318
same,"fraction unbound at 72 h, 0.476 mg/ml","HSA [2]; human, drug 0.476 mg/ml, equilibrium dialysis 72 h at 4 °C, n = 3, read-out: Protein binding rate (%, Mean±SD) (converted)",0.306
same,"fraction unbound at 72 h, 0.714 mg/ml","HSA [2]; human, drug 0.714 mg/ml, equilibrium dialysis 72 h at 4 °C, n = 3, read-out: Protein binding rate (%, Mean±SD) (converted)",0.314
same,"fraction unbound at 72 h, 0.476 mg/ml",HSA [3]; with ibuprofen 0.06 mg/ml,0.368
same,"fraction unbound at 72 h, 0.476 mg/ml",HSA [3]; with ibuprofen 0.3 mg/ml,0.248
same,"fraction unbound at 72 h, 0.476 mg/ml",HSA [3]; with ibuprofen 1.2 mg/ml,0.28
same,"fraction unbound at 72 h, 0.476 mg/ml",HSA [3]; with warfarin 0.06 mg/ml,0.467
same,"fraction unbound at 72 h, 0.476 mg/ml",HSA [3]; with warfarin 0.3 mg/ml,0.411
same,"fraction unbound at 72 h, 0.476 mg/ml",HSA [3]; with warfarin 1.2 mg/ml,0.453
same,"fraction unbound at 72 h, 0.476 mg/ml",HSA [3]; without site markers,0.331
same,Staining intensity of cardiac red blood cells (pixels) (mean ± se),zebrafish; 6.25 µg/ml,1280 pixels and 1280 ± 119 pixels
same,Antithrombotic effect (%),zebrafish; 6.25 µg/ml,−13%
same,Staining intensity of cardiac red blood cells (pixels) (mean ± se),zebrafish; 12.5 µg/ml,1521 pixels and 1521 ± 72 pixels
same,Antithrombotic effect (%),zebrafish; 12.5 µg/ml,14%
same,Staining intensity of cardiac red blood cells (pixels) (mean ± se),zebrafish; 25 µg/ml,1597 pixels and 1597 ± 65 pixels
same,Antithrombotic effect (%),zebrafish; 25 µg/ml,22%
same,Staining intensity of cardiac red blood cells (pixels) (mean ± se),zebrafish; 50 µg/ml,1796 pixels and 1796 ± 54 pixels
same,Antithrombotic effect (%),zebrafish; 50 µg/ml,44%
same,Staining intensity of cardiac red blood cells (pixels) (mean ± se),zebrafish; 100 µg/ml,1950 pixels and 1950 ± 33 pixels
same,Antithrombotic effect (%),zebrafish; 100 µg/ml,61%
same,Mortality,"zebrafish embryos [4]; 1 µg/mL, 24 h",0%
same,Deaths,"zebrafish embryos [4]; 1 µg/mL, 24 h",0 tails
same,Mortality,"zebrafish embryos [4]; 10 µg/mL, 24 h",0%
same,Deaths,"zebrafish embryos [4]; 10 µg/mL, 24 h",0 tails
same,Mortality,"zebrafish embryos [4]; 100 µg/mL, 24 h",0%
same,Deaths,"zebrafish embryos [4]; 100 µg/mL, 24 h",0 tails
same,Mortality,"zebrafish embryos [4]; 250 µg/mL, 24 h",13.3%
same,Deaths,"zebrafish embryos [4]; 250 µg/mL, 24 h",4 tails
same,Mortality,"zebrafish embryos [4]; 500 µg/mL, 24 h",100%
same,Deaths,"zebrafish embryos [4]; 500 µg/mL, 24 h",30 tails
same,Mortality (in words),"zebrafish embryos [4]; concentrations ranging from 1 to 100 µg/ml, 24 h",no mortality
same,Maximum-tolerated concentration (MTC),"zebrafish embryos [4]; zebrafish 3 dpf, 24 h treatment",100 µg/mL
